Literature values as cited in patent US8808745B2 (Egalet Ltd., priority 2001, dated 2014).

Settings: single dose of 10 mg oral morphine, plain tablet composition

CN1CC[C@]23c4c5ccc(O)c4O[C@H]2[C@@H](O)C=C[C@H]3[C@H]1C5 [morphine]
average duration of action: 4 to 5 h
